According to ChEMBL document CHEMBL1201862, “PubChem BioAssay data set” (2004):
The source made the active and inactive calls.

Key:
Large T antigen = Large T antigen (Simian virus 40, UniProt P03070); type: functional, Betapolyomavirus macacae;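 further: Confirmatory-stage PubChem screen for compounds that inhibit SV40 T antigen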
[1] = Luminescence Cell-Based Dose Response HTS to Identify Activators of Luciferase Translation or Activity in H4 […] Cells. [Related pubchem assays: 1829 (Project Summary), 1814 (Primary HTS)]; type: functional
[2] = molecular target: Induced myeloid leukemia cell differentiation protein Mcl-1 (Homo sapiens, UniProt Q07820); type: functional
Sequence of Induced myeloid leukemia cell differentiation protein Mcl-1 (Q07820 whole entry): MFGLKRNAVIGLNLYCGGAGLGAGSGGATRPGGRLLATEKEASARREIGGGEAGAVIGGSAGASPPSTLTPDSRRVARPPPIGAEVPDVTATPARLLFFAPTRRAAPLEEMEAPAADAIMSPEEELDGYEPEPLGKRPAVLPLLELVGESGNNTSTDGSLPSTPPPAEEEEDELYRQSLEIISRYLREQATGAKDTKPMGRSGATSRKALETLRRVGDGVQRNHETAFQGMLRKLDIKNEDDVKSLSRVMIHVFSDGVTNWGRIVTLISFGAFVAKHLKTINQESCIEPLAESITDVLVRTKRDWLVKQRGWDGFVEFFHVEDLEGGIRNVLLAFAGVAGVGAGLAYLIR

H4 = assay: Luminescence Cell-Based Dose Response HTS to Identify Activators of 5'UTR Stem-Loop Driven Prion Protein mRNA Translation in H4 Neuroglioblastoma Cells. [Related pubchem assays: 1829 (Project Summary), 1814 (Primary HTS)]; type: functional; settings: Homo sapiens
[3] = molecular target: T1, Polyadenylate-binding protein 1 (Homo sapiens, UniProt P11940); assay: PABP1 MLLE–PAM2 binding inhibitor potency, dose response, biochemical, fluorescence polarization, FITC-PAM2 peptide (AID 602259); type: functional; settings: read-out: IC50_Mean
T1 sequence (P11940 whole entry): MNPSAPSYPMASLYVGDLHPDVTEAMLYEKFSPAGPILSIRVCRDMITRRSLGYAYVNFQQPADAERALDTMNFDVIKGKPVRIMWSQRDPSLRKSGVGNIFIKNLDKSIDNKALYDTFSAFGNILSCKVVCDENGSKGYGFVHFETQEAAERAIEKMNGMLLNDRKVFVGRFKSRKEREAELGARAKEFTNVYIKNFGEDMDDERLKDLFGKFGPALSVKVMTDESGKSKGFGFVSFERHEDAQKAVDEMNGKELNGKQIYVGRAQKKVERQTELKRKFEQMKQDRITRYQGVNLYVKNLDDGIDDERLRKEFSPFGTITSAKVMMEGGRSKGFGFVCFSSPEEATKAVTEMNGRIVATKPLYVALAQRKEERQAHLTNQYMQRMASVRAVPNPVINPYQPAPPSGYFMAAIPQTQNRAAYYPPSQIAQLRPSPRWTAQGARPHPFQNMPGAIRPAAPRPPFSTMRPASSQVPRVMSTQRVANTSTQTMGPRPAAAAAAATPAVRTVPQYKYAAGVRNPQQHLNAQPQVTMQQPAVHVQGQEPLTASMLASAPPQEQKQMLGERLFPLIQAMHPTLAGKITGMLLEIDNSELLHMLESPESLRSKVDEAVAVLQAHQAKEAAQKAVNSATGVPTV

[4] = molecular target: T1, Polyadenylate-binding protein 1; assay: PABP1 MLLE–PAM2 interaction inhibitors, dose response, miRNA deadenylation inhibitor project, biochemical, fluorescence polarization, Cy5-PAM2 peptide, secondary (AID 602260); type: functional; settings: read-out: IC50_Mean
[5] = molecular target: Glyceraldehyde-3-phosphate dehydrogenase (Homo sapiens, UniProt P04406)
Sequence of Glyceraldehyde-3-phosphate dehydrogenase (P04406 whole entry): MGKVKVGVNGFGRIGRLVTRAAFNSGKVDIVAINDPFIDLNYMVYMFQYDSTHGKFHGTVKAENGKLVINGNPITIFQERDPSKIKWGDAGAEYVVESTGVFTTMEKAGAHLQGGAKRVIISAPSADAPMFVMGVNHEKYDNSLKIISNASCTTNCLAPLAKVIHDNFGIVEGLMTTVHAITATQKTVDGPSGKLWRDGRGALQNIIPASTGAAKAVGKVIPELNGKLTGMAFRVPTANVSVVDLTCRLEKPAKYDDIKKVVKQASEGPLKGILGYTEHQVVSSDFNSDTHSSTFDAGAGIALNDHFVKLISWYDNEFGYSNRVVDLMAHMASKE

Aminopeptidase N = molecular target: T2, Aminopeptidase N (Plasmodium falciparum FcB1/Columbia, UniProt O96935); assay: P. falciparum M1AAP inhibitors, biochemical, fluorogenic H-Leu-NHMec substrate, 1536-well (AID 1445); parameters: species or system Plasmodium falciparum 3D7, 3D7
T2 sequence (O96935 whole entry): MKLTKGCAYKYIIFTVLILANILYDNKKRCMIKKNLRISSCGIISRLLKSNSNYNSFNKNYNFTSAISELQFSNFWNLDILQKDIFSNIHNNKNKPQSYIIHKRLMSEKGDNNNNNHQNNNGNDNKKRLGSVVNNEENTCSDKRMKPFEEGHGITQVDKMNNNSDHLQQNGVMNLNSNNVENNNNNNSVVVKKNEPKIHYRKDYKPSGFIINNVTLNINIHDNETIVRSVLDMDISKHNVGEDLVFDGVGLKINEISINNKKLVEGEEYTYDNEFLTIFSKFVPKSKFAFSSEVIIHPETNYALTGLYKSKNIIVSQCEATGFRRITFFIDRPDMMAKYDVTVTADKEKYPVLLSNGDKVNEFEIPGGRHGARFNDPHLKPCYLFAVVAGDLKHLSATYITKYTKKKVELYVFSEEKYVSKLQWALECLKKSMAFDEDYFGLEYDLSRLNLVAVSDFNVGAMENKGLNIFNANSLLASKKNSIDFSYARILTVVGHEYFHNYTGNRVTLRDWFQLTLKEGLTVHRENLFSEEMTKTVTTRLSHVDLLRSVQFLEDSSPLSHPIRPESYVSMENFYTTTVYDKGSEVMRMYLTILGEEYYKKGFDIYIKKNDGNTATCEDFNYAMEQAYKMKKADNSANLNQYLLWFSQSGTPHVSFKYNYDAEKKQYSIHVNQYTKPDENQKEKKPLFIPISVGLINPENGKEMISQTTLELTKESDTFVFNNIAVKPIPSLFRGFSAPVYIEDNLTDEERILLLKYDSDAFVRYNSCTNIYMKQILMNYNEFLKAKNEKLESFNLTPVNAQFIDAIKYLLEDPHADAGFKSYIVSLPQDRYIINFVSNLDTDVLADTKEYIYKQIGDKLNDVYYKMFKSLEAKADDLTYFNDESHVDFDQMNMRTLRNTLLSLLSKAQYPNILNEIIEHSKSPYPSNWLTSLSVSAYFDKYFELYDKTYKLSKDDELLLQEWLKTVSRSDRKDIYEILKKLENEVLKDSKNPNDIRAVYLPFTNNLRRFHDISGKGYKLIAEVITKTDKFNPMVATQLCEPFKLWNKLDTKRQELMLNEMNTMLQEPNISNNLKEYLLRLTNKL

[6] = inhibitors of clade B AD8 Env fusion, dose response, cell-based, cherry-pick (AID 652062); type: functional;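 further: luciferase signal from cell-cell fusion driven by HIV-1 clade B AD8 Env; potency is for inhibitors of fusion seen as a drop in luminescence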
[7] = ZM109 Env clade C HIV-1 fusion inhibitors, dose response, HeLa effector, CEM target cells, luciferase, cherry-pick (AID 652058); type: functional, cell-based
[8] = inhibitors of HIV Env-driven cell fusion, dose response, cherry-pick (AID 652057); type: functional, cell-based
cells [9] = type: functional, cell-based
cells [10] = type: functional, cell-based; remark: listed apart in the source
Protein skinhead-1 = molecular target: T3, Protein skinhead-1 (Caenorhabditis elegans, UniProt P34707); type: functional
T3 sequence (P34707 whole entry): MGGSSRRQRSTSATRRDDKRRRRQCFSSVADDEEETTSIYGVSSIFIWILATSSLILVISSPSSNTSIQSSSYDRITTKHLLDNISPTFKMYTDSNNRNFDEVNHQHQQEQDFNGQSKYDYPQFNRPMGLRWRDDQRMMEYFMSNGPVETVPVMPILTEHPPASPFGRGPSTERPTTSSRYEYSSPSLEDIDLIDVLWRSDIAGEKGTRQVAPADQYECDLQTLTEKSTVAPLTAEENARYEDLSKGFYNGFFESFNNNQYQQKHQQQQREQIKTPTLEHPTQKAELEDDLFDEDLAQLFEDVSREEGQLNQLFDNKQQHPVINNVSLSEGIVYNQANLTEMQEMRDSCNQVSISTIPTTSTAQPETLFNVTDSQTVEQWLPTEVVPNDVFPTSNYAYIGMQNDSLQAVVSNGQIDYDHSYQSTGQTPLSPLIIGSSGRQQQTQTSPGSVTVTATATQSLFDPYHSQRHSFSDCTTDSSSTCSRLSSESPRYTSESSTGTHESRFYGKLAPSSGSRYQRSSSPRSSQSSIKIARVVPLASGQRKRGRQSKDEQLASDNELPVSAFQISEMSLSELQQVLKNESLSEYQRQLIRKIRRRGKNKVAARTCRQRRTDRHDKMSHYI

[11] = HEK293 cell cytotoxicity, dose response, cytotoxicity control, plate reader, cherry-picked samples (AID 743446); type: functional, cell-based
[12] = MC4R antagonists, dose response, counter-screen for LGR2 antagonist project, cell-based, plate reader, cherry pick (AID 743444); type: functional;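 further: transfected HEK 293 cells stimulated with alpha-MSH peptide; potency of inhibitors of the alpha-MSH evoked signal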
[13] = HepG2 cell cytotoxicity, dose response, cytotoxicity control, plate reader, cherry-pick, antagonist series (AID 743416); type: functional, cell-based
[14] = LGR2 antagonists, dose response, cell-based, HEK293, CRE-luciferase reporter, cherry pick, set 2 (AID 743343); type: functional;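 further: transfected cells were stimulated with diluted bursicon conditioned medium after compound addition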
[15] = A549 cell cytotoxicity, dose response, cytotoxicity control, plate reader, cherry-pick, antagonist series (AID 743412); type: functional, cell-based

Sequence of Large T antigen (P03070 whole entry): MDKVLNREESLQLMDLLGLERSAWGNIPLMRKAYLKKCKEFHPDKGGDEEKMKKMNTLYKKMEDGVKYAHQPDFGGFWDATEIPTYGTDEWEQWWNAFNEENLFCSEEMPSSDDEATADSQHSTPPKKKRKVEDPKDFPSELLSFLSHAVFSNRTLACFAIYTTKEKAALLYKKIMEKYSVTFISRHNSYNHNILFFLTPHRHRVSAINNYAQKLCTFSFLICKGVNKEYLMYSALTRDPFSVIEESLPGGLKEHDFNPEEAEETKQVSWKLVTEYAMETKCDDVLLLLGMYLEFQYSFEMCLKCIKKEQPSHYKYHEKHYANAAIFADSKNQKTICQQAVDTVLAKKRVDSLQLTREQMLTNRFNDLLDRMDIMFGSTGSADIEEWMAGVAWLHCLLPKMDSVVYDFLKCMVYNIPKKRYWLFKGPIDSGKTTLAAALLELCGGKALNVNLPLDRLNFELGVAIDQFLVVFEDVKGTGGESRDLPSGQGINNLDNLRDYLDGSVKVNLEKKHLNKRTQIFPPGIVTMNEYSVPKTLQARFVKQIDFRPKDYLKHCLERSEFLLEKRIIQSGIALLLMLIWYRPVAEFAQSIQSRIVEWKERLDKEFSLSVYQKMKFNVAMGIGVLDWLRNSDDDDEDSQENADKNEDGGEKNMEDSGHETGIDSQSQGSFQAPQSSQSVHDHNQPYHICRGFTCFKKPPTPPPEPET

In the case of `Cc1ccc2c(c1)NC(=O)c1cccnc1N2`, the IC50 (Large T antigen) is reported as 10.2 µM (active), the EC50 [1] is reported as 61.7 µM (active) and the IC50 [2] is reported as 10.5 µM (not active). The EC50 (H4) was > 120 µM (not active).

For `O=C(O)CCCCCN1C(=O)C(O)=C(C(=O)/C=C/c2ccccc2)C1c1ccccc1[N+](=O)[O-]` (centres undefined), the IC50 [3] was > 66 µM (inactive) and the IC50 [4] was > 66 µM (inactive).

With `CN(Cc1ccccc1)S(=O)(=O)c1ccc(C(=O)O)o1` the IC50 [5] was > 100 µM (not active).

For `CCOC(=O)c1[nH]cnc1C(=O)Nc1ccncc1`, the IC50 (Aminopeptidase N) was 26 µM (active).

With `COc1ccc(S(=O)(=O)Nc2ccc3c(c2)CC(=O)N([C@@H](C)CO)C[C@H](C)[C@H](CN(C)S(=O)(=O)c2cccs2)O3)cc1` the AC50 [6] was 25.1 µM (active), the AC50 [7] was 1.15 µM (active) and the AC50 [8] was 7.42 µM (active).

With `Cc1ccc(C)c(CSc2ncccc2C(=O)O)c1` the IC50 (Aminopeptidase N) was 77.7 µM (active).

For `C=CCN1C(=O)c2ccccc2Sc2ccc(C(=O)N3CCN(C)CC3)cc21`, the EC50 (cells [9]) was > 350 µM (not active) and the EC50 (cells [10]) was > 350 µM (not active).

With `CN(C)CCCN(C(=O)CCS(=O)(=O)c1ccccc1)c1nc2cc3c(cc2s1)OCO3` the EC50 (cells [9]) was > 350 µM (not active) and the EC50 (cells [10]) was > 350 µM (not active).

For `Cn1c(N)c(C(=O)COC(=O)c2cc(-c3ccco3)nc3ccccc23)c(=O)n(Cc2ccccc2)c1=O`, the IC50 [2] was 2.95 µM (active).

In the case of `COc1cc(/C=C/C(=O)Nc2cc(S(=O)(=O)N3CCOCC3)ccc2N2CCCC2)cc(OC)c1OC`, the IC50 [3] is reported as > 66 µM (inactive) and the IC50 [4] is reported as > 66 µM (inactive).

In the case of `COc1cccc(/C=C2\CC(C)Cc3c2nc2ccccc2c3C(=O)O)c1OC` (centres undefined), the IC50 (Protein skinhead-1) is reported as > 100 µM (inactive).

With `COc1ccc(Nc2nc(C(=O)NCCCN3CCOCC3)cs2)cc1` the IC50 (Protein skinhead-1) was > 100 µM (inactive).

In the case of `CCOC(=O)c1sc(=S)n(-c2cccc(OC)c2)c1N`, the IC50 [3] is reported as > 66 µM (inactive) and the IC50 [4] is reported as > 66 µM (inactive).

With `COc1cccc(-c2ncn(CCc3ccccc3OC)c2CC(C)C)c1` the AC50 [11] was > 52 µM (inactive), the AC50 [12] was 22.2 µM (active) and the AC50 [13] was 22.3 µM (active). For the same molecule, the AC50 [14] was 23.6 µM (active) and the AC50 [15] was 23.6 µM (active).

With `O=C(Nc1ccc(Cl)cc1)Nc1nnc(/C=C/c2ccccc2)s1` the IC50 [2] was 5.89 µM (active).

For `CC(=O)Nc1ccc(NC(=O)CCC(=O)OCC(=O)c2ccc(F)cc2)cc1`, the EC50 (cells [9]) was > 350 µM (not active) and the EC50 (cells [10]) was > 350 µM (not active).

In the case of `Clc1cccc(/C=N/Nc2nc(Cl)nc3ccccc23)c1`, the IC50 [2] is reported as 19 µM (not active).

For `CSc1nc(C)cc(C)c1C#N`, the EC50 (cells [9]) was > 350 µM (not active) and the EC50 (cells [10]) was > 350 µM (not active).
